In patent publication US20210087206A1, “MACROCYCLIC KINASE INHIBITORS AND THEIR USE” (TURNING POINT THERAPEUTICS, INC., priority 2017, published 2021):

What was measured:
Assay in all cases: Cell proliferation assay (CellTiter-Glo)
Format in all cases: cell-based
BaF3 EML4-ALK = molecular target: T1, BaF3 EML4-ALK (Homo sapiens, UniProt Q9UM73); conditions: anti-cell proliferation, 72 hours
T1 construct: The EML4-ALK gene (variant 1) was synthesized at GenScript and cloned into pCDH-CMV-MCS-EF1-Puro plasmid (System Biosciences, Inc); fused on or other part: EML4 N-terminal part (variant 1: exons 1-13, with the coiled-coil that oligomerises the fusion) fused to the intracellular part of ALK, which contains the kinase domain; Q9HC35 (Echinoderm microtubule-associated protein-like 4)
T1 sequence (Q9UM73 whole entry, stated change not applied, the tested form may be a part): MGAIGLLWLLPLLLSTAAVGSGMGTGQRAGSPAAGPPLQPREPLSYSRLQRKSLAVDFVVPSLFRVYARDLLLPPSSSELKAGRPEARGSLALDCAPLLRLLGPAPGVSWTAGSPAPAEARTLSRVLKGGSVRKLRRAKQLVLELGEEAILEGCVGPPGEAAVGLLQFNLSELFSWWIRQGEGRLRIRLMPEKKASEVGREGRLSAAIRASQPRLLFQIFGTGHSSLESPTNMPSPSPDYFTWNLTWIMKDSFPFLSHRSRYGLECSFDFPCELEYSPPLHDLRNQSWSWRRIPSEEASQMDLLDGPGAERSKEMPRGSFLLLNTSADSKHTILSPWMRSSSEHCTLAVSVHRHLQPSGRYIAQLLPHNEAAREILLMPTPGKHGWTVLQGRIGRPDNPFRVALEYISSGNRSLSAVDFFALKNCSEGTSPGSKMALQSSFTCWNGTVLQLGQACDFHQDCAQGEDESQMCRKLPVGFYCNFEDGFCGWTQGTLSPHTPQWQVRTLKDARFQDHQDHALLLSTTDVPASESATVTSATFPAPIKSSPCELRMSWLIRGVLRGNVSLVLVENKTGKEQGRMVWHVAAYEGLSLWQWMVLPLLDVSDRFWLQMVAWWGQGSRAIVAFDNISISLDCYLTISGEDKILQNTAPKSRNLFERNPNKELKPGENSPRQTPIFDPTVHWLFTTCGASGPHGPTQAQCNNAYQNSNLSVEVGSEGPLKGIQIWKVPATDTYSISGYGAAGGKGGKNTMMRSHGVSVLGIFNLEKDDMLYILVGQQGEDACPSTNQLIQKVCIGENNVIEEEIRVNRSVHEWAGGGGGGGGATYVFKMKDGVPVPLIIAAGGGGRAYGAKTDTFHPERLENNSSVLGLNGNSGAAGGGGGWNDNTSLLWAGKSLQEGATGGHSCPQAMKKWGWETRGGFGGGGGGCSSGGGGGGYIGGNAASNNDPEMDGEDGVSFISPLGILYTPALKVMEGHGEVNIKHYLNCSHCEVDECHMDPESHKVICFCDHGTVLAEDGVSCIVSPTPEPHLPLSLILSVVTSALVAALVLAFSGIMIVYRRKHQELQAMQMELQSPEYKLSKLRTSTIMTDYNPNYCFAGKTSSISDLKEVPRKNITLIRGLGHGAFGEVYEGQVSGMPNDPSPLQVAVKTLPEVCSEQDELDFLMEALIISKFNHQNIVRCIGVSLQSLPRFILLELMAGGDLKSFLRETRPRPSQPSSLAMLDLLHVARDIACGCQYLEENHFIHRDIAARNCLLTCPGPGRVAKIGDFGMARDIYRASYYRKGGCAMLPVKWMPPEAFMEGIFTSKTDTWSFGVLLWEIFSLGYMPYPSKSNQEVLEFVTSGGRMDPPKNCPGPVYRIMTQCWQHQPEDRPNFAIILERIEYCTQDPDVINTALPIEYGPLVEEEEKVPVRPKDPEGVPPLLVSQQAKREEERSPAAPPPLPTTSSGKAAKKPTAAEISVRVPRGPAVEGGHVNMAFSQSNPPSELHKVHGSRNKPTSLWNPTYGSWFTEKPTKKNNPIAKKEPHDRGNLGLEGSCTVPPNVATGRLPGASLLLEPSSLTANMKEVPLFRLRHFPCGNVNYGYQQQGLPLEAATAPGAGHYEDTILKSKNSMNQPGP
In short: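 Ba/F3 cells were lentivirally transduced with EML4-ALK variant 1 and selected for puromycin resistance and IL-3-independent growth. Proliferation was measured by CellTiter-Glo ATP luminescence to give IC50.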

KG-1 cell (OP2-FGFR1) = conditions: Homo sapiens, anti-cell proliferation, 72 hours
In short: (§1)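 Cells seeded 24 h, then exposed to compounds for 72 h at 37° C., 5% CO2. Proliferation read by CellTiter-Glo luminescent ATP detection; IC50 from dose-response fits.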

KM12 (TPM3-TRKA) = conditions: Homo sapiens, anti-cell proliferation, 72 hours
In short: as §1

SMILES | IC50 (BaF3 EML4-ALK) [nM] | IC50 (KG-1 cell (OP2-FGFR1)) [nM] | IC50 (KM12 (TPM3-TRKA)) [nM]
C[C@@H]1COc2cn3ncc4c3nc2N1Cc1cc(F)cnc1OCCCNC4=O [Compound 33, (16R)-12-fluoro-16-methyl-5,6,7,8,16,17-hexahydro-4H,14H-1,19-(metheno)[1,4]oxazino[4,3-e]pyrazolo[3,4-h]pyrido[2,3-b] [1,5,7,11]oxatriazacyclotetradecin-4-one] | 58.4 | 37.1 | < 0.2
C[C@H]1CNC(=O)c2cnn3cc4c(nc23)N(Cc2cc(F)cnc2OC1)[C@H](C)CO4 [Compound 35, (7S,16R)-12-fluoro-7,16-dimethyl-5,6,7,8,16,17-hexahydro-4H,14H-1,19-(metheno)[1,4]oxazino[4,3-e]pyrazolo[3,4-h]pyrido[2,3-b] [1,5,7,11]oxatriazacyclotetra-decin-4-one] | 48.2 | 33.5 | < 0.2
C[C@@H]1COc2cn3ncc4c3nc2N1Cc1cc(F)cnc1OCC(C)(C)NC4=O [Compound 40, (4R)-8-fluoro-4,13,13-trimethyl-3,4,13,14-tetrahydro-6H-18,1-(metheno)[1,4]oxazino[3,4-i]-pyrazolo[4,3-f]pyrido[3,2-l] [1,4,8,10]oxatriazacyclotridecin-15(12H)-one] | < 0.2 | 0.2 | < 0.2
COC[C@@H]1COc2cn3ncc4c3nc2N1Cc1cc(F)cnc1OC[C@@H](C)NC4=O [Compound 44, (4R,13R)-8-fluoro-4-(methoxymethyl)-13-methyl-3,4,13,14-tetrahydro-6H-18,1-(metheno)[1,4]oxazino[3,4-i]pyrazolo[4,3-f]pyrido[3,2-1][1,4,8,10]oxatriazacyclotridecin-15(12H)-one] | 549 | 168 | < 0.2
C[C@@H]1COc2cn3ncc4c3nc2N1Cc1cc(F)cnc1OCC1(CCC1)NC4=O [Compound 45, (4′R)-8′-fluoro-4′-methyl-3′H,4′H,6′H,12′H,14′H,15′H-spiro[cyclobutane-1,13′-[2,11]-dioxa[5,10,14,17,18,19]hexaaza-[18,1](metheno)[1,4]oxazino[3,4-i]pyrazolo[4,3-f]pyrido[3,2-l] [1,4,8,10]oxatriazacyclotridecin]-15′-one] | 2.7 | 5 | < 0.2
C[C@@H]1COc2ncc(F)cc2CN2c3nc4c(cnn4cc3OC[C@H]2c2ccccc2)C(=O)N1 [Compound 46, (4R,13R)-8-fluoro-13-methyl-4-phenyl-3,4,13,14-tetrahydro-6H-18,1-(metheno)[1,4]oxazino[3,4-i]pyrazolo[4,3-f]pyrido[3,2-1][1,4,8,10]oxatriazacyclotridecin-15(12H)-one] | 1060 | 0.2 | < 0.2
C[C@@H]1COc2cn3ncc4c3nc2N1Cc1cc(F)cnc1OCC1(CCC1)CNC4=O [Compound 47, (16′R)-12′-fluoro-16′-methyl-4′H,5′H,6′H,8′H,14′H,16′H,17′H-spiro[cyclobutane-1,7′-[9,18]-dioxa[1,2,5,10,15,20]hexaaza-[1,19](metheno)[1,4]oxazino-[4,3-e]pyrazolo[3,4-h]pyrido-[2,3-b][1,5,7,11]oxatriazacyclo-tetradecin]-4′-one] | 68 | 24.2 | < 0.2
C[C@@H]1COc2cn3ncc4c3nc2N1Cc1cc(F)cnc1O[C@H]1CCC[C@H]1NC4=O [Compound 49, (8R,15aS,18aR)-12-fluoro-8-methyl-7,8,15a,16,17,18,18a, 19-octahydro-10H,20H-3,5-(metheno)cyclopenta[b][1,4]-oxazino[3,4-i]pyrazolo[4,3-f]-pyrido[3,2-l][1,4,8,10]-oxatriazacyclotridecin-20-one] | 55.1 | 9.5 | < 0.2
C[C@@H]1COc2cn3ncc4c3nc2N1Cc1cc(F)cnc1OCC1(CCCC1)NC4=O [Compound 52, (4'R)-8'-fluoro-4'-methyl-3'H,4'H,6'H,12'H,14'H,15'H-spiro[cyclopentane-1,13'-[2,11]-dioxa[5,10,14,17,18,19]hexaaza-[18,1](metheno)[1,4]oxazino[3,4-i]pyrazolo[4,3-f]pyrido[3,2-l] [1,4,8,10]oxatriazacyclotridecin]-15’-one] | 276 | 359 | < 0.2
C[C@@H]1COc2cn3ncc4c3nc2N1Cc1cc(F)cnc1O[C@H]1CCC[C@@H]1NC4=O [Compound 53, (8R,15aS,18aS)-12-fluoro-8-methyl-7,8,15a,16,17,18,18a, 19-octahydro-10H,20H-3,5-(metheno)cyclopenta[b][1,4]-oxazino[3,4-i]pyrazolo[4,3-f]-pyrido[3,2-l][1,4,8,10]oxatriaza-cyclotridecin-20-one] | 113 | 183 | < 0.2
C[C@@H]1COc2cn3ncc4c3nc2N1Cc1cc(F)cnc1OC[C@@H](O)CNC4=O [Compound 54, (7S,16R)-12-fluoro-7-hydroxy-16-methyl-5,6,7,8,16,17-hexa-hydro-4H,14H-1,19-(metheno)-[1,4]oxazino[4,3-e]pyrazolo-[3,4-h]pyrido[2,3-b][1,5,7,11]-oxatriazacyclotetradecin-4-one] | 661 | 678 | < 0.2
C[C@@H]1COc2cn3ncc4c3nc2N1Cc1cc(F)cnc1OCC(C)(C)CNC4=O [Compound 55, (16R)-12-fluoro-7,7,16-trimethyl-5,6.7,8,16,17-hexahydro-4H,14H-1,19-(metheno)[1,4]oxazino[4,3-e]pyrazolo[3,4-h]pyrido[2,3-b] [1,5,7,11]oxatriazacyclotetradecin-4-one] | 14.8 | 4.2 | < 0.2

Continued, in another order:

IC50 (BaF3 EML4-ALK) [nM] | SMILES | IC50 (KG-1 cell (OP2-FGFR1)) [nM] | IC50 (KM12 (TPM3-TRKA)) [nM]
23.7 | C[C@@H]1COc2cn3ncc4c3nc2N1Cc1cc(F)cnc1OCC1(CC1)NC4=O [Compound 34, (4′R)-8′-fluoro-4′-methyl-3′H,4′H,6′H,12′H,14′H,15′H-spiro[cyclopropane-1,13′-[2,11]dioxa[5,10,14,17,18,19]hexaaza[18,1](metheno)[1,4]oxazino[3,4-i]pyrazolo[4,3-f]pyrido[3,2-l][1,4,8,10]oxatriazacyclotridecin]-15′-one] | 12.5 | < 0.2
60.9 | C[C@@H]1COc2cn3ncc4c3nc2N1Cc1cc(F)cnc1O[C@@H](C)CCNC4=O [Compound 36, (8S,16R)-12-fluoro-8,16-dimethyl-5,6,7,8,16,17-hexahydro-4H,14H-1,19-(metheno)[1,4]oxazino[4,3-e]pyrazolo[3,4-h]pyrido[2,3-b] [1,5,7,11]oxatriazacyclotetra-decin-4-one] | 25.3 | < 0.2
1170 | C[C@@H]1COc2ncc(F)cc2CN2c3nc4c(cnn4cc3OC[C@H]2CC#N)C(=O)N1 [Compound 41, [(4R,13R)-8-fluoro-13-methyl-15-oxo-3,4,12,13,14,15-hexahydro-6H-18,1-(metheno)[1,4]oxazino[3,4-i]pyrazolo[4,3-f]pyrido[3,2-][1,4,8,10]oxatriazacyclotridecin-4-yl]acetonitrile] | 611 | 0.5
1200 | C=C1COc2cn3ncc4c3nc2N1Cc1cc(F)cnc1OC[C@@H](C)NC4=O [Compound 42, (13R)-8-fluoro-13-methyl-4-methylidene-3,4,13,14-tetrahydro-6H-18,1-(metheno)[1,4]oxazino[3,4-i]pyrazolo[4,3-f]pyrido[3,2-1][1,4,8,10]oxatriazacyclotridecin-15(12H)-one] | 1230 | < 0.2
85 | C[C@@H]1COc2ncc(F)cc2CN2c3nc4c(cnn4cc3OC[C@H]2CN=[N+]=[N-])C(=O)N1 [Compound 43, (4R,13R)-4-(azidomethyl)-8-fluoro-13-methyl-3,4,13,14-tetrahydro-6H-18,1-(metheno)-[1,4]oxazino[3,4-i]pyrazolo[4,3-f]pyrido[3,2-l][1,4,8,10]oxatriaza-cyclotridecin-15(12H)-one] | 30.6 | 0.2
22.1 | C[C@@H]1COc2cn3ncc4c3nc2N1Cc1cc(F)cnc1OCC[C@H](C)NC4=O [Compound 48, (6S,16R)-12-fluoro-6,16-dimethyl-5,6,7,8,16,17-hexahydro-4H,14H-1,19-(metheno)[1,4]oxazino[4,3-e]pyrazolo[3,4-h]pyrido[2,3-b] [1,5,7,11]oxatriazacyclotetra-decin-4-one] | 12.9 | < 0.2
583 | C[C@@H]1COc2cn3ncc4c3nc2N1Cc1cc(F)cnc1OCC1(CC(F)(F)C1)NC4=O [Compound 50, (4′R)-3,3,8′-trifIuoro-4′-methyl-3′H,4′H,6′H,12′H,14′H,15′H-spiro[cyclobutane-1,13′-[2,11]-dioxa[5,10,14,17,18,19]hexaaza-[18,1](metheno)[1,4]oxazino[3,4-i][4,3-f]pyrido[3,2-l][1,4,8,10]-oxatriazacyclotridecin]-15′-one] | 412 | < 0.2
233 | C[C@@H]1COc2cn3ncc4c3nc2N1Cc1cc(F)cnc1OC[C@H](C)NC4=O [Compound 51, (4R,13S)-8-fluoro-4,13-dimethyl-3,4,13,14-tetrahydro-6H-18,1-(metheno)[1,4]oxazino[3,4-i]-pyrazolo[4,3-f]pyrido[3,2-l] [1,4,8,10]oxatriazacyclotridecin-15(12H)-one] | 101 | < 0.2
